According to article PMC11145868, “Protein target similarity is positive predictor of in vitro antipathogenic activity: a drug repurposing strategy for Plasmodium falciparum” (Journal of Cheminformatics, 2024):
Read-outs that look alike come from different tables or passages of the source.

Columns and labels:
[1] = in vitro; details: human
[2] = tested on: P. falciparum Dd2-HLH; assay: microbe, parasite or virus in culture; type: cell-based, Plasmodium falciparum
[3] = tested on: P. berghei-luciferase sporozoites; assay: microbe, parasite or virus in culture; type: cell-based, Plasmodium berghei
[4] = Mammalian cell cytotoxicity assay, HepG2 (CellTiter-Glo, 72 h); details: human
[5] = tested on: P. falciparum Dd2-HLH; assay: microbe, parasite or virus in culture; type: cell-based, Plasmodium falciparum; remark: listed apart in the source
[6] = tested on: HepG2 cells
[7] = tested on: HEK293T cells
[8] = tested on: HEK293T cells; assay: Mammalian cell cytotoxicity assay, HEK293T (CellTiter-Glo, 72 h); details: read-out: HEK CC50
[9] = tested on: HepG2 cells; assay: Mammalian cell cytotoxicity assay, HepG2 (CellTiter-Glo, 72 h); details: read-out: HEP CC50
[10] = Plasmodium berghei, HepG2, liver-stage parasites, 48 hours in culture, read-out: Liver stage 48h EC50
[11] = Plasmodium falciparum, DD2, 72 h, read-out: Blood stage 72h EC50
[12] = Plasmodium berghei, liver-stage parasites, 48 h in culture, read-out: Liver 48 h EC50
[13] = Plasmodium falciparum, DD2, Hec50, 48 h, read-out: Blood stage 48 h EC50
[14] = P. falciparum blood-stage parasites, 72 hours in culture, read-out: Blood stage 72h EC50
[15] = liver-stage parasites, 48 hours in culture, read-out: Liver stage 48h EC50
[16] = Plasmodium falciparum, DD2, 48 h, read-out: Blood stage 48h EC50
[17] = P. falciparum blood-stage parasites, 48 hours in culture, read-out: Blood stage 48h EC50

CS[C@H]1SC[C@H]2C(=O)N(C)[C@@H](C(C)C)C(=O)OC[C@@H](NC(=O)c3cnc4ccccc4n3)C(=O)N[C@@H](C)C(=O)N(C)[C@@H]1C(=O)N(C)[C@@H](C(C)C)C(=O)OC[C@@H](NC(=O)c1cnc3ccccc3n1)C(=O)N[C@@H](C)C(=O)N2C [Echinomycin]
CC50 [1]: 0.001 µM
EC50 ([2]; Plasmodium falciparum, DD2, P. falciparum blood-stage parasites, 72 hours in culture, read-out: Blood stage 72h EC50): 0.003 µM
EC50 [3, 10]: 0.002 µM
CC50 at 72 h [4]: 0.001 µM

O=C(CC1NCCCC1O)Cn1cnc2cc(Br)c(Cl)cc2c1=O (centres unmarked) [Halofuginone, reference compound]
CC50 at 72 h [1]: 0.088 µM
EC50 [2, 11]: 0.001 µM
EC50 [3, 12]: 0.07 µM
EC50 [5, 13]: 0.001 µM

COC(=O)C[C@](O)(CCCC(C)(C)O)C(=O)O[C@@H]1C(OC)=C[C@]23CCCN2CCc2cc4c(cc2[C@H]13)OCO4 [Homoharringtonine, reference compound]
CC50 [1]: 0.032 µM
EC50 [2, 11]: 0.007 µM
EC50 [3, 12]: 0.026 µM
EC50 [5, 13]: 0.006 µM

O=C1c2ccccc2C(=O)c2sc(-c3ccco3)nc21 [INO-5042]
CC50 [6]: 0.705 µM
CC50 [7]: 1.33 µM
EC50 [2, 14]: 0.403 µM
EC50 [3, 15]: 2.07 µM

CC(=O)[C@]1(O)Cc2c(O)c3c(c(O)c2[C@@H](O[C@H]2C[C@H](N)[C@H](O)[C@H](C)O2)C1)C(=O)c1ccccc1C3=O [Idarubicin]
CC50 [1]: 0.036 µM
EC50 [2, 11]: 0.302 µM
EC50 [3, 10]: 0.843 µM
EC50 [5, 16]: 1.87 µM

CCOC(=O)[C@@H]1O[C@H]1C(=O)NC(CC(C)C)C(=O)N1CCN(Cc2ccc(OC)c(OC)c2OC)CC1 (some centres unmarked) [NCO 700]
CC50 [6]: > 9.95 µM
CC50 [7]: > 9.95 µM
EC50 [2, 14]: 0.033 µM
EC50 [3, 15]: > 10 µM
EC50 [5, 17]: 0.016 µM

COc1cccc2c1C(=O)c1c(O)c3c(c(O)c1C2=O)C[C@@](O)(C(=O)CO)C[C@@H]3O[C@H]1C[C@H](N2CCO[C@H](OC)C2)[C@H](O)[C@H](C)O1 [Nemorubicin, reference compound]
CC50 [1]: 0.005 µM
EC50 ([2]; Plasmodium falciparum, DD2, blood-stage parasites, 72 h in culture, read-out: Blood stage 72 h EC50): 0.009 µM
EC50 [3, 12]: 0.009 µM
CC50 at 72 h [4]: 0.002 µM
EC50 ([5]; Plasmodium falciparum, DD2, blood-stage parasites, 48 h in culture, read-out: Blood stage 48 h EC50): 0.004 µM

Cn1/c(=N\C#N)n(-c2ccc(C(C)(C)C#N)nc2)c2c3cc(-c4cnc(N)c(C(F)(F)F)c4)ccc3ncc21 [Panulisib]
CC50 [6]: 0.01 µM
CC50 [7]: 0.011 µM
EC50 [2, 14]: 0.159 µM
EC50 [3, 15]: 0.077 µM
EC50 [5, 17]: 0.019 µM

CCCCCCCCN=c1ccn(CCCCCCCC)cc1 [Pirtenidine]
CC50 ([8]; HEK293T cells): 0.279 µM
EC50 [2, 14]: 0.615 µM
EC50 [3, 15]: 0.838 µM
CC50 ([9]; HepG2 cells): 1.08 µM

CCCNCC(O)COc1ccccc1C(=O)CCc1ccccc1 (centres unmarked) [Propafenone SR]
CC50 [6]: > 9.99 µM
CC50 [7]: > 9.95 µM
EC50 ([2]; read-out: Blood stage 72h EC50): 0.566 µM
EC50 ([3]; read-out: Liver stage 48h EC50): > 10 µM
EC50 ([5]; read-out: Blood stage 48h EC50): 0.253 µM

N[C@@H]1[C@H]2CN(c3nc4c(cc3F)c(=O)c(C(=O)O)cn4-c3ccc(F)cc3F)C[C@@H]12 [Trovafloxacin mesilate, reference compound]
CC50 [1]: > 9.95 µM
EC50 [2, 11]: 0.669 µM
EC50 [3, 10]: > 10 µM
EC50 ([5]; Plasmodium falciparum, DD2, read-out: EC50, antiplasmodial drug sensitivity assays in bloodstage): 9.95 µM

O=C1c2ccccc2-n2c1nc1ccccc1c2=O [Tryptanthrin]
CC50 [1]: > 9.95 µM
EC50 [2, 11]: 0.562 µM
EC50 [3, 10]: 0.041 µM
EC50 [5, 16]: 0.737 µM

C=C/C=C/C[C@@H](C)[C@@H](O)[C@H]1C(=O)N[C@@H](CC)C(=O)N(C)CC(=O)N(C)[C@@H](CC(C)C)C(=O)N[C@@H](C(C)C)C(=O)N(C)[C@@H](CC(C)C)C(=O)N[C@@H](C)C(=O)N[C@H](C)C(=O)N(C)[C@@H](CC(C)C)C(=O)N(C)[C@@H](CC(C)C)C(=O)N(C)[C@@H](C(C)C)C(=O)N1C [Voclosporin]
CC50 ([8]; HEK293T cytotoxicity): > 9.95 µM
EC50 [2, 14]: 0.254 µM
CC50 ([9]; HepG2 cytotoxicity): > 9.95 µM

Cc1nc(N2CCN(Cc3ccc(F)cc3)C2=O)sc1C(=O)NCc1cccnc1 [XEN-723]
CC50 ([8]; HEK293T cells): 0.057 µM
EC50 [2, 14]: 0.334 µM
EC50 [3, 15]: > 10 µM
EC50 [5, 17]: 0.158 µM

COc1cc2c(Nc3ccc(NC(=O)c4ccccc4)cc3)ncnc2cc1OCCCN1CCOCC1 [ZM447439]
CC50 ([8]; HEK293T cytotoxicity): > 9.95 µM
EC50 [2, 14]: 0.643 µM
EC50 [3, 15]: 4.33 µM
EC50 [5, 17]: 0.452 µM

SN-38
CC50 ([8]; HEK293T cells): 0.079 µM
EC50 [2, 14]: 0.358 µM
EC50 [3, 15]: 1.01 µM
EC50 [5, 17]: 0.507 µM

XL-888
CC50 ([8]; HEK293T cytotoxicity): 0.047 µM
EC50 [2, 14]: 0.348 µM
EC50 [3, 15]: 0.099 µM
EC50 [5, 17]: 0.201 µM
